Measured values from ChEMBL document CHEMBL1909046, “DrugMatrix in vitro pharmacology data”.

Assays:
[1] = molecular target: T1, Alpha-1B adrenergic receptor (Rattus norvegicus, UniProt P15823); assay: DRUGMATRIX: Alpha-1B adrenergic receptor radioligand binding (ligand: prazosin); assay type: cell membranes, Wistar, Liver, Membrane; conditions: Not Active = under 50% inhibition at 10 µM
T1 sequence (P15823 whole entry): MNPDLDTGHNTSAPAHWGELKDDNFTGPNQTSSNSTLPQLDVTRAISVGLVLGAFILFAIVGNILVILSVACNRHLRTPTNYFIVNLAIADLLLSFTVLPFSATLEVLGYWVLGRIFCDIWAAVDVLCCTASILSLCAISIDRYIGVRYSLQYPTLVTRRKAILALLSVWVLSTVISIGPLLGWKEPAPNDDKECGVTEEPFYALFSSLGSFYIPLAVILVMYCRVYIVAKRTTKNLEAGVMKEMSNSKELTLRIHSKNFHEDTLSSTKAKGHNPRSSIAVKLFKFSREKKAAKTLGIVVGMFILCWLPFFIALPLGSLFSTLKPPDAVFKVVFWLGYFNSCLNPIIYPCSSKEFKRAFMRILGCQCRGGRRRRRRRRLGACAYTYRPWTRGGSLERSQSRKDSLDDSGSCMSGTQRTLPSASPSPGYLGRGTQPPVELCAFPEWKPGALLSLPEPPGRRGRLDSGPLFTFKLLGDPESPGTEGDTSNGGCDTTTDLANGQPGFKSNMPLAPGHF

[2] = molecular target: Sodium-dependent noradrenaline transporter (Homo sapiens, UniProt P23975); assay: DRUGMATRIX: Norepinephrine Transporter radioligand binding (ligand: [125I] RTI-55); assay type: cell membranes, MDCK, Membrane; conditions: mdck; Not Active = under 50% inhibition at 10 µM
D(1A) dopamine receptor = D(1A) dopamine receptor (Homo sapiens, UniProt P21728); assay: DRUGMATRIX: Dopamine D1 radioligand binding (ligand: [3H] SCH-23390); assay type: cell membranes, CHO, Membrane; conditions: cho; Not Active = under 50% inhibition at 10 µM
Cytochrome P450 2C9 = Cytochrome P450 2C9 (Homo sapiens, UniProt P11712); conditions: bti-tn-5b1-4; also: in other assays of this panel Not Active means under 50% inhibition at 10 µM
Cytochrome P450 2D6 = Cytochrome P450 2D6 (Homo sapiens, UniProt P10635); conditions: bti-tn-5b1-4; also: in other assays of this panel Not Active means under 50% inhibition at 10 µM
Cytochrome P450 3A4 = Cytochrome P450 3A4 (Homo sapiens, UniProt P08684); conditions: bti-tn-5b1-4; also: in other assays of this panel Not Active means under 50% inhibition at 10 µM
Estrogen receptor = molecular target: T2, Estrogen receptor (Homo sapiens, UniProt P03372); conditions: sf9; also: in other assays of this panel Not Active means under 50% inhibition at 10 µM
T2 sequence (P03372 whole entry): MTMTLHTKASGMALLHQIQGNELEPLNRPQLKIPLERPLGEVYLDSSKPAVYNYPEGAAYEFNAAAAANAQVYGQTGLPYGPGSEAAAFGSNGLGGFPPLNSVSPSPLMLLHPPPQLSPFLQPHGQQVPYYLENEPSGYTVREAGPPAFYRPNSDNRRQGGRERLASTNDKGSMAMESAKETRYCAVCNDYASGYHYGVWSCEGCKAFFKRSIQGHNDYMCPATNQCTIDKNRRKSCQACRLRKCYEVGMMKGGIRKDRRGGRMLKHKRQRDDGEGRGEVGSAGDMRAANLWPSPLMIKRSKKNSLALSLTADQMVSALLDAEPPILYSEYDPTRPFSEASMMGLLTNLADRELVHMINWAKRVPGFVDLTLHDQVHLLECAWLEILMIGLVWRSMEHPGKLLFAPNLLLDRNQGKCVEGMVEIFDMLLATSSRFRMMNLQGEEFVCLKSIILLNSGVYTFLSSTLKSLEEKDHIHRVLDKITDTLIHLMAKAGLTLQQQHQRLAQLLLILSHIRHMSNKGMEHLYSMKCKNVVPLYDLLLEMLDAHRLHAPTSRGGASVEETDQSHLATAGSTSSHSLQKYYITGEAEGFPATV

Glucocorticoid receptor = molecular target: T3, Glucocorticoid receptor (Homo sapiens, UniProt P04150); conditions: hela s3; also: in other assays of this panel Not Active means under 50% inhibition at 10 µM
T3 sequence (P04150 whole entry): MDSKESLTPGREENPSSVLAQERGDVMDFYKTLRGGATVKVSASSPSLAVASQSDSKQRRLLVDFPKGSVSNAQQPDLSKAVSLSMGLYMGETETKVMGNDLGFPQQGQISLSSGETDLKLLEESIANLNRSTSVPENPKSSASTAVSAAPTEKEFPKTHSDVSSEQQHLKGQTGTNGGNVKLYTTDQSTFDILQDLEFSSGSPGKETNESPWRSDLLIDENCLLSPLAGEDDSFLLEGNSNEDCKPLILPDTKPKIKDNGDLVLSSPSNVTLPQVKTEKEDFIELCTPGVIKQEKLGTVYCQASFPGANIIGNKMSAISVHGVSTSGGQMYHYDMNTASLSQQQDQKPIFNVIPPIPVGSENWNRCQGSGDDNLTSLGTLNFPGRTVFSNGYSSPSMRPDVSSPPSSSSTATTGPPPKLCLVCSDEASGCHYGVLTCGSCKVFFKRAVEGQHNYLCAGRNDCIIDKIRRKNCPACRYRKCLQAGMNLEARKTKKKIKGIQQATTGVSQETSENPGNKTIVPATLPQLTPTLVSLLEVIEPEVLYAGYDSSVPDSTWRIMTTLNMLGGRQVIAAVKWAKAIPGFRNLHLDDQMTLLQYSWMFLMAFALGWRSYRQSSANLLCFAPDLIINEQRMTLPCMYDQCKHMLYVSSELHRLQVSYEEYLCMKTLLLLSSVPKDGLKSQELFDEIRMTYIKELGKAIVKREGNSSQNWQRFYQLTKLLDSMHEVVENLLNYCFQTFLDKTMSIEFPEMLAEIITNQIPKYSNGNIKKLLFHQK

Sequence of Cytochrome P450 3A4 (P08684 whole entry): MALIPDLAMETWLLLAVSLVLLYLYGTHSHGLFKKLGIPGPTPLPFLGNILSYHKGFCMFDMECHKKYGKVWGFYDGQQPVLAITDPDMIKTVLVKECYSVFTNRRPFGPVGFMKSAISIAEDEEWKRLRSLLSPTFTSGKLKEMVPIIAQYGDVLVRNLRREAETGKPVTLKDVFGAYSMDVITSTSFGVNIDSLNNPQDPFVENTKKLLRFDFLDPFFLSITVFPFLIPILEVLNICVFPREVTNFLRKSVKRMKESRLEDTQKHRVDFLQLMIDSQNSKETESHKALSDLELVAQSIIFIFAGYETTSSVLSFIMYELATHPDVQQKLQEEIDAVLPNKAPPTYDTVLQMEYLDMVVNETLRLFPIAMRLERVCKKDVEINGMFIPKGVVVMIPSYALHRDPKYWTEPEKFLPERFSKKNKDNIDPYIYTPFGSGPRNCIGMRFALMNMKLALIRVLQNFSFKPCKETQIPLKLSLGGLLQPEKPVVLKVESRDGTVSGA
Sequence of Sodium-dependent noradrenaline transporter (P23975 whole entry): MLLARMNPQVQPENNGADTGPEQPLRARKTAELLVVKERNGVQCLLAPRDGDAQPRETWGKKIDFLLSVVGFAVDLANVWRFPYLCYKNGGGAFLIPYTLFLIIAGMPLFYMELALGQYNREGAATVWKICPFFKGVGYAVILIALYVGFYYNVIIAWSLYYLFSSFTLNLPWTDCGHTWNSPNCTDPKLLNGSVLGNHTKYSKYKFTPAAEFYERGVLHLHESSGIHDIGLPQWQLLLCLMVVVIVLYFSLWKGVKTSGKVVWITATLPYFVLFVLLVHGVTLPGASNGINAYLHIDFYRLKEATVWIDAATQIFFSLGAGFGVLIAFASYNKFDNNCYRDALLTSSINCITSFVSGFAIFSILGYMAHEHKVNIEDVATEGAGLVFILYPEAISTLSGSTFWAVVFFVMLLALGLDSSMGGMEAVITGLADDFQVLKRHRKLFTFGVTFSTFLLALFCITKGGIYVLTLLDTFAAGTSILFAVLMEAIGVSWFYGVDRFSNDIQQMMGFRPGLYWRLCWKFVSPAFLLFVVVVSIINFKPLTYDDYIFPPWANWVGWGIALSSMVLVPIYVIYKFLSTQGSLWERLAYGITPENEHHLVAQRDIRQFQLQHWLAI
Sequence of D(1A) dopamine receptor (P21728 whole entry): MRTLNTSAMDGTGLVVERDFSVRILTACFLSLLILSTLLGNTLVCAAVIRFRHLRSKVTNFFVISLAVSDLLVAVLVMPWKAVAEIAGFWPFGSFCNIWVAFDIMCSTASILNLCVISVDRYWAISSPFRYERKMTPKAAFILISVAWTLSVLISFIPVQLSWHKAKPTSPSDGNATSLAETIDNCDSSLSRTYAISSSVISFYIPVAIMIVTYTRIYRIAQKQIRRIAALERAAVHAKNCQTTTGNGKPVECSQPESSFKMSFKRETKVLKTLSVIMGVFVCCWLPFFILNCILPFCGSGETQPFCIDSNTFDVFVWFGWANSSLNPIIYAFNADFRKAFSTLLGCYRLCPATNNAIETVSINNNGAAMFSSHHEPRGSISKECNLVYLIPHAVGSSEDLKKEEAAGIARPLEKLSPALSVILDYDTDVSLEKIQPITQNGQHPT
Sequence of Cytochrome P450 2C9 (P11712 whole entry): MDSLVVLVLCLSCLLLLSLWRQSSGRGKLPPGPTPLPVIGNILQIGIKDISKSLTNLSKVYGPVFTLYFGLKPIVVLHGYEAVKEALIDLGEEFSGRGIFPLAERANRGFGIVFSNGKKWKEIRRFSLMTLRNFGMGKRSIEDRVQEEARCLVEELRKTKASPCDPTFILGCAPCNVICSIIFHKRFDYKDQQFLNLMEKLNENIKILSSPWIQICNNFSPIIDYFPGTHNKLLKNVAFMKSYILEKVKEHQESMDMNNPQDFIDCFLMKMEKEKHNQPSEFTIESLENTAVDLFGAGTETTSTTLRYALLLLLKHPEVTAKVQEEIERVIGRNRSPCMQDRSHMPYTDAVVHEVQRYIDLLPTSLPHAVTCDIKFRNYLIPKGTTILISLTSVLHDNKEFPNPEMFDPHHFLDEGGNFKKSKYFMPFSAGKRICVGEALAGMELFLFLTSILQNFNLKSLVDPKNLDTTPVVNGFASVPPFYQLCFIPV
Sequence of Cytochrome P450 2D6 (P10635 whole entry): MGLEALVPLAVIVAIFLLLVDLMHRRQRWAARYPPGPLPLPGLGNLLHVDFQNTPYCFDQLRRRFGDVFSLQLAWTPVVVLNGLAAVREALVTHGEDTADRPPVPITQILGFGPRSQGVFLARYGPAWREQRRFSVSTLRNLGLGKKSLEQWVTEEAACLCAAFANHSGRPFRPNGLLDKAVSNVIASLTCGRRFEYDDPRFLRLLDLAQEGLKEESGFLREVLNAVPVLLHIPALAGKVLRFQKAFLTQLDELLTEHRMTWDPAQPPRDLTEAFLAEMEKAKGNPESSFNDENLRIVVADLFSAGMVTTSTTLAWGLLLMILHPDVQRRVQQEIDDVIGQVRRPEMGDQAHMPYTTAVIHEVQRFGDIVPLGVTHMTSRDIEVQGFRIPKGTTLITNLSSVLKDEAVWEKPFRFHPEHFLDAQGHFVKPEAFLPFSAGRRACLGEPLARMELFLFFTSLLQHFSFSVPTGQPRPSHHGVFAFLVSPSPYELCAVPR

Cc1cccc(C)c1NC(=O)C(C)N (stereo not drawn) [TOCAINIDE]
Not Active: IC50 [1] | IC50 [2] | IC50 (D(1A) dopamine receptor) | IC50 (Cytochrome P450 2C9) | Ki (Cytochrome P450 2C9) | IC50 (Cytochrome P450 2D6) | Ki (Cytochrome P450 2D6) | IC50 (Cytochrome P450 3A4) | Ki (Cytochrome P450 3A4) | IC50 (Estrogen receptor) | IC50 (Glucocorticoid receptor)

CC1=C(/C=C/C(C)=C/C=C/C(C)=C/C(=O)O)C(C)(C)CCC1 [TRETINOIN]
Not Active: IC50 [1] | IC50 [2] | IC50 (D(1A) dopamine receptor) | IC50 (Cytochrome P450 2C9) | Ki (Cytochrome P450 2C9) | IC50 (Cytochrome P450 2D6) | Ki (Cytochrome P450 2D6) | IC50 (Cytochrome P450 3A4) | Ki (Cytochrome P450 3A4) | IC50 (Estrogen receptor) | IC50 (Glucocorticoid receptor)

LEAD(IV) ACETATE
Not Active: IC50 [1] | Ki [1] | IC50 [2] | Ki [2] | IC50 (D(1A) dopamine receptor) | Ki (D(1A) dopamine receptor) | IC50 (Cytochrome P450 2C9) | Ki (Cytochrome P450 2C9) | IC50 (Cytochrome P450 2D6) | Ki (Cytochrome P450 2D6) | IC50 (Cytochrome P450 3A4) | Ki (Cytochrome P450 3A4) | IC50 (Estrogen receptor) | Ki (Estrogen receptor) | IC50 (Glucocorticoid receptor) | Ki (Glucocorticoid receptor)
